Data published in patent publication US11129801B2 (SigmaThera SAS, priority 2016, dated 2021).

B1: BDNF: Brain-derived neurotrophic factor, used as a reference compound (protein, UniProt P23560 19-247, looked up)
Neurotrophic factor BDNF …: APMKEANIRGQGGLAYPGVRTHGTLESVNGPKAGSRGLTSLADTFEHVIEELLDEDQKVRPNEENNKDADLYTSRVMLSSQVPLEPPLLFLLEEYKNYLDAANMSMRVRRHSDPARRGELSVCDSISEWVTAADKKTAVDMSGGTVTVLEKVPVSKGQLKQYFYETKCNPMGYTKEGCRGIDKRHWNSQCRTTQSYVRALTMDSKKRIGWRFIRIDTSCVCTLTIKRGR

System: rat medium spiny neurons (DARPP32 positive neurons)
Assay: Survival of primary medium spiny neurons injured by glutamate
Type: cell-based
Conditions: glutamate 40 μM, 20 min
Protocol: Rat MSN of striatum were cultured as described (Ivkovic S, et al, (1999) The Journal of neuroscience: the official journal of the Society for Neuroscience 19(13): 5409-5419).
Briefly pregnant female rats of 15 days gestation were killed by cervical dislocation (Rats Wistar; Janvier) and the foetuses removed from the uterus. The embryonic midbrains were removed and placed in ice-cold medium of Leibovitz 15 (L15; PanBiotech, Ref P04-27055, Batch: 8810315) containing 2% of Penicillin-Streptomycin (PS; PanBiotech, ref: P06-07100, Batch: 7511015) and 1% of bovine serum albumin (BSA; PanBiotech, Ref: P06-1391100, Batch: H140904). Only the ventral portions of the mesencephalic flexure were used for the cell preparations as this region of the developing brain is rich in dopaminergic neurons. The midbrains were dissociated by trypsinisation for 20 minutes (min) at 37° C. (Trypsin EDTA 1×; PanBiotech, Ref: P10-023100, batch: 1670415). The reaction was stopped by the addition of Dulbecco's modified Eagle's medium (DMEM; PanBiotech, Ref: P04-03600, Batch: 9021115) containing DNase I grade II (0.1 mg/ml; PanBiotech, Ref: P60-37780100, Batch: H140508) and 10% of fetal calf serum (FCS; Invitrogen, Ref: 10270-098, Batch: 41G8542K). Cells were then mechanically dissociated by 3 passages through a 10 ml pipet. Cells were then centrifuged at 180×g for 10 min at 4° C. on a layer of BSA (3.5%) in L15 medium. The supernatant was discarded and the cell pellets were re-suspended in a defined culture medium consisting of Neurobasal (Invitrogen, Ref: 21103, Batch: 1754639) supplemented with B27 (2%; Invitrogen, ref: 17504, batch: 1799273), L-glutamine (2 mM; PanBiotech, Ref: P04-80100, Batch: 6620314) and 2% of PS. Viable cells were counted in a Neubauer cytometer using the trypan blue exclusion test. The cells were seeded at a density of 70000 cells/well in 96 well-plates (pre-coated with poly-D-lysine; Greiner, Ref: E150033VJ) and were cultured at 37° C. in a humidified air (95%)/CO2 (5%) atmosphere. Half of the medium was changed every 2 days with fresh medium. […]

Molecule	DARPP32 positive neurons (0.3 μM)	DARPP32 positive neurons (1 μM)	DARPP32 positive neurons (10 ng/mL)
CCC(C/C=C/c1ccccc1)(c1ccccc1)N(C)CC1CC1 (single isomer, unassigned; (+)) [igmesine, (+)-(E)-N-(cyclopropylmethyl)-N-methyl-3,6-diphenylhex-5-en-3-amine]	89.28 % of the control	81.60 % of the control	
B1			90.14 % of the control
